# Measured values reported in publication PMC6825211 (Nature Communications, 2019).
# “And” between values parts separate entries of the source, which are not always exact repeats. Identical values can stand only once.
# What was measured:
# PIM-1-KINASE = PIM-1-KINASE (Homo sapiens, UniProt P11309); experiment: Nanosyn kinase profiling, mobility shift assay; settings: read-out: % inhibition by neratinib
# INS-1E cells = experiment: Western blot of pMST1, caspase-3/PARP cleavage, PDX1, BIM under diabetogenic conditions; type: cell-based, rat
# Protocol: . pThr183), caspase-3 and PARP cleavage, PDX1, tubulin, and actin were analyzed by western blotting. Representative Western blots and pooled quantitative densitometry analysis are shown from three independent cell line experiments (n = 3). […]; all by Student’s t tests.
# . pThr183), caspase-3 and PARP cleavage, and BIM and actin were analyzed by western blotting. Representative Western blots (b) and pooled quantitative densitometry analysis (c) are shown from 3–6 independent culture dishes (n = 3–6). […]; all by Student’s t tests.
# (§1) Human islets were isolated from eight pancreases of nondiabetic organ donors at PRODO Labs and at Lille University and cultured on extracellular matrix-coated dishes (Novamed, Jerusalem, Israel)[62] or on Biocoat Collagen I coated dishes (#356400, Corning, ME, USA). […] The clonal rat β-cell line INS-1E was kindly provided by Dr. Claes Wollheim, Geneva & Lund University. Human islets were cultured in complete CMRL-1066 (Invitrogen) medium at 5.5 mM glucose, mouse islets and INS-1E cells at complete RPMI-1640 medium at 11.1 mM glucose. […] . Palmitic acid (Sigma) was dissolved at 10 mmol/l in RPMI-1640 medium containing 11% fatty acid–free bovine serum albumin (BSA) (Sigma) under an N2-atmosphere and added to the culture at 0.5 mM[64]. […] . Isolated human islets or INS-1E cells were infected with adenovirus carrying LacZ as control or MST1 or LATS2 (all Vector Biolabs), at a multiplicity of infection of 100 (human islets) or 20 (INS-1E) for 4 h[11]. Adenovirus was subsequently washed off with PBS and replaced by fresh medium with 10% FBS and the respective analysis performed after 48 h post infection.
# [1] = MALDI imaging mass spectrometry of pancreas sections; type: in vivo, mouse
# Protocol: MALDI imaging mass spectrometry (MALDI imaging MS) was performed on pancreas, liver, colon, stomach, kidney, heart, and brain tissue sections from WT C57BL/6J and db/db mice in triplicates. […] For MALDI imaging MS, 10-µm cryo sections were cut with a cryo-microtome (CM1860, Leica Biosystems, Nussloch, Germany) and mounted on indium–tin-coated conductive glass slides (Bruker Daltonics, Bremen, Germany). The matrix (HCCA in 50% ACN, 0.5% TFA) was applied with the ImagePrep Device (Bruker Daltonics), and MALDI spectra were recorded by using a Bruker autofleX speed mass spectrometer in positive reflector mode with a mass range of 400–1400 m/z. A large-size laser diameter was used with a lateral resolution of 100 µm, and 500 laser shots per pixel were accumulated with the random walk option set to 100 shots per position. […] Standards were spotted on mice liver cryo-sections and the spectral intensity was plotted.
# PYK2 = PYK2 (Homo sapiens, UniProt Q14289); experiment: Nanosyn kinase profiling, mobility shift assay; settings: read-out: % inhibition by neratinib
# CK1-EPSILON = CK1-EPSILON (Homo sapiens, UniProt P49674); experiment: Nanosyn kinase profiling, mobility shift assay; settings: read-out: % inhibition by neratinib
# MEK6 = MEK6 (Homo sapiens, UniProt P52564); experiment: Nanosyn kinase profiling, mobility shift assay; settings: read-out: % inhibition by neratinib
# MLD–STZ C57BL/6J mice = experiment: MLD–STZ model: β-cell apoptosis (TUNEL); type: in vivo, mouse
# Protocol: C57Bl/6J mice were injected with 40 mg/kg streptozotocin or citrate buffer for 5 consecutive days. […] In d, basal glucose values were normalized to 100%. e Insulin secretion measured from retro-orbital blood draw during an ipGTT measured before (0 min) and 15 min after glucose injection; data are expressed as the ratio of secreted insulin at 15 min/0 min (stimulatory index). f The ratio of secreted insulin and glucose is calculated at fed state. g–i Mice were killed at day 35. g β-cell mass (given as percentage of the whole pancreatic section from ten sections spanning the width of the pancreas) and quantitative analyses from triple staining for h TUNEL or i Ki67, insulin, and DAPI expressed as percentage of TUNEL- or Ki67-positive β-cells ±SEM. An average number of 2331 (h), or 26369 (i) β-cells were counted. n = 9 mice/group for (a); n = 4–12 for (b); n = 5–15 for (c) and (d); n = 12–19 for (e); n = 8–14 for (f); n = 4–9 for (g); n = 4–11 for (h); and n = 6–11 mice/groupfor (i); all from three independent experiments).
# (§2) Mouse pancreases were dissected and fixed in 4% formaldehyde at 4 °C for 12 h before embedding in paraffin[62]. Two-four-micrometer sections were deparaffinized, rehydrated, and incubated overnight at 4 °C with anti-PDX-1 (Abcam; #47267), anti-Glut2 (Chemicon; #07-1402), anti-Ki67 (Dako; #M7249), anti-phospho-Histone H3 (Ser10; Merck #06-570), and anti-NKX6.1 (DSHB, University of Iowa #F55A12[66]) in combination with TSA (Invitrogen #T30955), or for 2 h at room temperature with anti-insulin (Dako; A0546) antibodies (all at a dilution of 1:100, except anti-PDX-1, which was diluted 1:400) followed by fluorescein isothiocyanate (FITC)- or Cy3-conjugated secondary antibodies (Jackson ImmunoResearch Laboratories, West Grove, PA). Slides were mounted with Vectashield with 4′6-diamidino-2-phenylindole (DAPI) (Vector Labs). β-cell apoptosis was analyzed by the terminal deoxynucleotidyl transferase-mediated dUTP nick-end labeling (TUNEL) technique according to the manufacturer’s instructions (In Situ Cell Death Detection Kit, TMR red; Roche) and double stained for insulin. Fluorescence was analyzed by using a Nikon MEA53200 (Nikon GmbH, Dusseldorf, Germany) microscope, and images were acquired by using NIS-Elements software (Nikon).
# JNK2 = JNK2 (Homo sapiens, UniProt P45984); experiment: Nanosyn kinase profiling, mobility shift assay; settings: read-out: % inhibition by neratinib
# SYK = SYK (Homo sapiens, UniProt P43405); experiment: Nanosyn kinase profiling, mobility shift assay; settings: read-out: % inhibition by neratinib
# human islets = experiment: β-cell apoptosis (TUNEL/insulin) under diabetogenic conditions; type: cell-based; settings: for mean TUNEL/isolation/%: 72 h
# Protocol: . pThr183), caspase-3 cleavage, and GAPDH or actin were analyzed by western blotting. […] Scale bar, 100 μm. […]; all by Student’s t tests.
# as §1, §2
# [2] = MLD–STZ model: body weight; type: in vivo, mouse; settings: 5 mg/kg i.p. daily, 35 days
# LCK = LCK (Homo sapiens, UniProt P06239); experiment: biochemical; settings: read-out: % inhibition by neratinib
# Sequence of LCK (P06239 whole entry, species assumed): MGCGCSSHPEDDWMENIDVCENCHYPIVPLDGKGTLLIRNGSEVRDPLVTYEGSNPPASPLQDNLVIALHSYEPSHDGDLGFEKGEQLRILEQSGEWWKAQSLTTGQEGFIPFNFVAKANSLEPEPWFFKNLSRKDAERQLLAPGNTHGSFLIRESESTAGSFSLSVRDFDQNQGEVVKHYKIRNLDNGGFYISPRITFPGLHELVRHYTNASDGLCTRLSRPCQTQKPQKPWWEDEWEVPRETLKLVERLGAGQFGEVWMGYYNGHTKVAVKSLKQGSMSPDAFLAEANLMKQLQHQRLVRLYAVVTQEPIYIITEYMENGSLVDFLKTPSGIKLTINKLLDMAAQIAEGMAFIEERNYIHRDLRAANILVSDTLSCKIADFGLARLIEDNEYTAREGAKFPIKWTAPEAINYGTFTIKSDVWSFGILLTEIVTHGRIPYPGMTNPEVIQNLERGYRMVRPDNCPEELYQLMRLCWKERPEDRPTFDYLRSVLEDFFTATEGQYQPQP
# Sequence of JNK2 (P45984 whole entry): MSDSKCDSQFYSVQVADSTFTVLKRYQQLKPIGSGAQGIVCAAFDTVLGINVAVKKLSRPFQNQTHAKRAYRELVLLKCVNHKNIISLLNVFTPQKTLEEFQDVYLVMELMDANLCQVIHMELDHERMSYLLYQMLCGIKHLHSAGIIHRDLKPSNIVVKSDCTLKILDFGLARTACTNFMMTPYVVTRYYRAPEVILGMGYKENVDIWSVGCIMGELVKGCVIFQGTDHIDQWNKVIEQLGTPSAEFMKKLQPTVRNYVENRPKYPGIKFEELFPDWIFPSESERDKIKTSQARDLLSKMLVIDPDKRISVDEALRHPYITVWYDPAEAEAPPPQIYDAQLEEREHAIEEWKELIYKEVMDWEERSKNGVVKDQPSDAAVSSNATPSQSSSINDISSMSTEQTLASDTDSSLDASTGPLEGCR
# Sequence of PYK2 (Q14289 whole entry): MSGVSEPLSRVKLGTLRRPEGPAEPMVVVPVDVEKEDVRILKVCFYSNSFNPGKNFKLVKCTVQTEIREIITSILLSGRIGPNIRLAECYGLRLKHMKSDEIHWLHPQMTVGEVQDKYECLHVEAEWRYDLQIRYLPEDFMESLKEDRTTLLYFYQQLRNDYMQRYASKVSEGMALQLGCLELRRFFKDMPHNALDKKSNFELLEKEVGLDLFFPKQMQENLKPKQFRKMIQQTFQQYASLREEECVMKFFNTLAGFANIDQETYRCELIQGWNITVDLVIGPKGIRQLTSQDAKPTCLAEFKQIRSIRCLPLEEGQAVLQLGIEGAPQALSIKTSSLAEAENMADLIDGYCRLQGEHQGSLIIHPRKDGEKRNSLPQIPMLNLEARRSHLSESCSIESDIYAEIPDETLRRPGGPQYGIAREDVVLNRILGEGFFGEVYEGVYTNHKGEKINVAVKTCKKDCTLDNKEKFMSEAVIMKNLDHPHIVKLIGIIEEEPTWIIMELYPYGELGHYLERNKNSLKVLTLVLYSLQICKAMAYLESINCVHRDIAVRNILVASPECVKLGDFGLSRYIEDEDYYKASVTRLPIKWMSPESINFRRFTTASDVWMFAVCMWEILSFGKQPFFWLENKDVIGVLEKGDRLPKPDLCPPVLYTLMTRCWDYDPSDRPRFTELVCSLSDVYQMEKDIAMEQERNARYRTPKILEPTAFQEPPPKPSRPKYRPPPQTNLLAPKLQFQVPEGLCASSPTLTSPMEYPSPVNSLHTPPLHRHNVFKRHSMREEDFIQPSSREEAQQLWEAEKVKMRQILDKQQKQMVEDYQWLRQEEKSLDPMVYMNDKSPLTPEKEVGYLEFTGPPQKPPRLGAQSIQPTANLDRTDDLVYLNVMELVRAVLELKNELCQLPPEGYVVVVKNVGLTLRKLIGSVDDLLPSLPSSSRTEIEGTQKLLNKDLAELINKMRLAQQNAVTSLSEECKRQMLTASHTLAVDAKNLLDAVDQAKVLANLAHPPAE
# Sequence of CK1-EPSILON (P49674 whole entry): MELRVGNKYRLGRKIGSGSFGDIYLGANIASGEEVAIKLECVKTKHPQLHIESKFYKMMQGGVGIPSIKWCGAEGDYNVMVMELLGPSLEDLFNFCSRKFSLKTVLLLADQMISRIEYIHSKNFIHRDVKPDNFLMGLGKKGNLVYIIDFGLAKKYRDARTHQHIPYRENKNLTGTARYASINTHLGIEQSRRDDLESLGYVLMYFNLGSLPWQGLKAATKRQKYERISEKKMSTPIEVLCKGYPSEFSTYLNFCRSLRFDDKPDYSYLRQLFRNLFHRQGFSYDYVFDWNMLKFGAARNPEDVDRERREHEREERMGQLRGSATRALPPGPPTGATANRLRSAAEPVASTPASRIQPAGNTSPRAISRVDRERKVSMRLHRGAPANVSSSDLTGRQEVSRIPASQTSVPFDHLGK
# Sequence of PIM-1-KINASE (P11309 whole entry): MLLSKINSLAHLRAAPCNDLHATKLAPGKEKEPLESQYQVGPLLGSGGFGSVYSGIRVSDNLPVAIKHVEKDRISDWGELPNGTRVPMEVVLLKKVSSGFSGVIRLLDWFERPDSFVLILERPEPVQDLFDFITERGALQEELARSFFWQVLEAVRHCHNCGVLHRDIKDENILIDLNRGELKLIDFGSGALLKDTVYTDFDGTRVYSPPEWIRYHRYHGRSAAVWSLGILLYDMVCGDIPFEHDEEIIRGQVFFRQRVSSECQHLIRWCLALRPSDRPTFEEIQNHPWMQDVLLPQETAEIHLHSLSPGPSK
# Sequence of MEK6 (P52564 whole entry): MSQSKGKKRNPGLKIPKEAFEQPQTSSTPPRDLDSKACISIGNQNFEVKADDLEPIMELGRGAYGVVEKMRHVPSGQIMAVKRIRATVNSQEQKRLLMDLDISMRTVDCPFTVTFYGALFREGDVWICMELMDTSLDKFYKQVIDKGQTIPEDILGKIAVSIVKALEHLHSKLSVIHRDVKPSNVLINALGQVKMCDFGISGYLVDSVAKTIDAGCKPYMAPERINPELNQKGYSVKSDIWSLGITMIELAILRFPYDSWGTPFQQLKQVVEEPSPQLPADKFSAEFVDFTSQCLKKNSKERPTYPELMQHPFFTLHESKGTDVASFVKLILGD
structure (smiles),measurement,setting,value
CCOc1cc2ncc(C#N)c(Nc3ccc(OCc4ccccn4)c(Cl)c3)c2cc1NC(=O)/C=C/CN(C)C [neratinib],inhibition at 10 µM,PIM-1-KINASE,13%
same,PDX1 expression reduced by elevated glucose,"INS-1E cells; 22.2 mM glucose, 72 h",restored PDX1 expression
same,H2O2- and high glucose/palmitate-induced MST1 activation and apoptosis (caspase-3 and PARP cleavage),INS-1E cells; 72 h,potently inhibited
same,mitochondrial BIM induction under diabetic conditions,"INS-1E cells; HG/Pal, 10 μM, 24 h",significantly reduced
same,stress-induced MST1 activation and caspase-3 and PARP cleavage,"INS-1E cells; HG/Pal, 10 μM, 24 h",strongly counteracted
same,neratinib in pancreatic tissue,"[1]; WT mice, 4 h after i.p. injection",clearly detected
same,neratinib signal in pancreas tissue sections,"[1]; db/db mice, 4-week daily i.p. injection",specific signal was obtained
same,inhibition at 10 µM,PYK2,41%
same,inhibition at 10 µM,CK1-EPSILON,77%
same,inhibition at 10 µM,MEK6,9%
same,TUNEL%/ mouse,"MLD–STZ C57BL/6J mice; NeraCtr group (no STZ), MEAN",0.08333%
same,TUNEL%/ mouse,"MLD–STZ C57BL/6J mice; NeraCtr group (no STZ), individual mice",0.3333% and 0%
same,TUNEL%/ mouse,"MLD–STZ C57BL/6J mice; NeraSTZ group, MEAN",0.24%
same,TUNEL%/ mouse,"MLD–STZ C57BL/6J mice; NeraSTZ group, individual mice",0% and 0.2857% and 1.2987% and 0.3546% and 0.7008%
same,β-cell apoptosis,"MLD–STZ C57BL/6J mice; STZ mice, day 35",reduced β-cell apoptosis
same,inhibition at 10 µM,JNK2,84%
same,inhibition at 10 µM,SYK,-14%
same,toxicity at basal control levels,"human islets; 25 µM neratinib, human islets",did not result in any detectable toxicity
same,mean TUNEL/isolation/%,"human islets; HG/Pal + NERA, mean of isolations, untreated = 100",180.73%
same,mean TUNEL/isolation/%,"human islets; HG/Pal + NERA, single islet isolations, untreated mean = 100",224.286% and 136.508% and 181.395%
same,mean TUNEL/isolation/%,"human islets; ILIF + NERA, mean of isolations, untreated = 100",205.757%
same,body weight,[2],no influence on body weight
same,inhibition at 10 µM,LCK,96%
